SMILES strings stand for the structures. Like-named read-outs stand apart in the source and are kept apart here.

For data set [1], the system named is Scleraxis (Scx) gene transcriptional activation, TT-D6 Scx-luciferase (ScxL) cell line. Kind of data set: SCX-LUC in vitro assay (scleraxis-luciferase reporter). Type of data set: cell-based, mouse. As to conditions: read-out: Scx-Luc (EC50 μM).
Data set [2] can be described thus: Cumulative release of microparticle formulations in PBS buffer (FIG. 1). It is filed as physicochemical. As to conditions: incorporated into PLGA microparticles; following the initial burst; PBS buffer pH 7.4, 1% Tween 20.
Data set [3] in a line: In-vivo release from microparticles in a rat model. The following applies: PLGA microparticles.
The mark [4] stands for this setting: Mus musculus, 96 h, TT-D6 Scx-luciferase cells, 1 ng/ml TGFβ1, four days.

With `Nc1n[nH]c2ccc(-c3ccc(S(=O)(=O)NC4CCC(O)(C(F)(F)F)CC4)cc3Cl)nc12` [4-(3-amino-1H-pyrazolo[4,3-b]pyridin-5-yl)-3-chloro-N-((1R,4R)-4-hydroxy-4-(trifluoromethyl)cyclohexyl)benzenesulfonamide], the concentration for a half-maximal effect (EC50) in data set [1] (TT-D6 Scx-luciferase cells, 1 ng/ml TGFβ1, four days) is above 10 µM. For the molecule `Nc1n[nH]c2ccc(-c3ccc(S(=O)(=O)N4CCC[C@H]4CO)cc3Cl)nc12` [(S)-(1-((4-(3-amino-1H-pyrazolo[4,3-b]pyridin-5-yl)-3-chlorophenyl)sulfonyl)pyrrolidin-2-yl)methanol], in data set [1] (setting [4]), the EC50 is above 10 µM. With `Cc1cc(S(=O)(=O)N[C@H]2C[C@](O)(C(F)(F)F)C2)ccc1-c1ccc2[nH]nc(N)c2n1` [Example 2, 4-(3-amino-1H-pyrazolo[4,3-b]pyridin-5-yl)-N-((1s,3s)-3-hydroxy-3-(trifluoromethyl)cyclobutyl)-3-methylbenzenesulfonamide], in data set [2], the “period of steady state release of drug” value is 21 days. This molecule had an extended release in-vivo in data set [3] of 4 weeks.

Take `Nc1n[nH]c2ccc(-c3ccc(S(=O)(=O)N[C@H]4CCC[C@H]4O)cc3Cl)nc12` [Example 35, 4-(3-amino-1H-pyrazolo[4,3-b]pyridin-5-yl)-3-chloro-N-((1S,2R)-2-hydroxycyclopentyl)benzenesulfonamide]: in data set [1] (Mus musculus, 96 h), the half-maximal effective concentration (EC50) was 2.73 µM. In the case of `Nc1n[nH]c2ccc(-c3ccc(NS(=O)(=O)c4ccccc4)cc3Cl)nc12` [Example 46, N-(4-(3-amino-1H-pyrazolo[4,3-b]pyridin-5-yl)-3-chlorophenyl)benzenesulfonamide], the EC50 in data set [1] (setting [4]) is 0.01 µM. Same read-out and setting: under `Nc1n[nH]c2ccc(-c3ccc(S(=O)(=O)NC4CCS(=O)(=O)CC4)cc3Cl)nc12` [Example 50, 4-(3-amino-1H-pyrazolo[4,3-b]pyridin-5-yl)-3-chloro-N-(1,1-dioxidotetrahydro-2H-thiopyran-4-yl)benzenesulfonamide] stands above 10 µM. In the case of `CNS(=O)(=O)c1ccc(S(=O)(=O)Nc2ccc(-c3ccc4[nH]nc(N)c4n3)c(Cl)c2)cc1` [Example 76, N1-(4-(3-amino-1H-pyrazolo[4,3-b]pyridin-5-yl)-3-chlorophenyl)-N4-methylbenzene-1,4-disulfonamide], the EC50 in data set [1] (setting [4]) is 0.003 µM.

Source of the values: US11203595B2, “Aza-indazole compounds for use in tendon and/or ligament injuries” (NOVARTIS AG, priority 2016, dated 2021).
